Data on two compounds can be found in patent publication EP4582426A1, “PAN-KRAS INHIBITOR COMPOUND” (Adlai Nortye Biopharma Co., Ltd., priority 2022, dated 2024).

The subject of one assay is AsPC-1 (G12D). The assay is described as follows: In vitro cell proliferation inhibition test (CellTiter-Glo Luminescent Cell Viability Assay). The assay is classed as cell-based. Conditions: AsPC-1 cell line, Pancreas, KRAS (p.G12D); cells and compounds co-incubated 72 hours. The procedure, abridged:
(§1)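 Cells were seeded at 1000-5000/well and cultured overnight, then exposed to compound (top final 10 µM, ten 3-fold dilutions) for 72 h at 37°C, 5% CO2. Viability was read by CellTiter-Glo luminescence; IC50 was obtained from four-parameter fits of normalized signal.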

The subject of a further assay is SW480 (G12V). Described as above. Conditions: SW480 cell line, Large intestine; Colon, KRAS (p.G12V); cells and compounds co-incubated 72 hours. The assay is classed as cell-based. The procedure, abridged:
as §1

One may read the IC50 as the concentration needed to halve the response being measured. Turning to `CCn1c(-c2cc(C#CC3CN(C)CCS3(=N)=O)cnc2C(C)OC)c2c3cc(ccc31)-c1csc(n1)CC(NC(=O)C1CC1C)C(=O)N1CCCC(N1)C(=O)OCC(C)(C)C2` [Example 51, (1S,2S)-N-((6^3S,4S,Z)-1^1-ethyl-1^2-(5-(((2S)-1-imino-4-methyl-1-oxido-1λ^6-thiomorpholin-2-yl)ethynyl)-2-((S)-1-methoxyethyl)pyridin-3-yl)-10,10-dimethyl-5,7-dioxo-6^1,6^2,6^3,6^4,6^5,6^6-hexahydro-1^1H-8-oxa-2(4,2)-thiazola-1(5,3)-indola-6(1,3)-pyridazinacycloundecaphane-4-yl)-2-methylcyclopropane-1-carboxamide], the IC50 turned out to be 4.5 nM with AsPC-1 (G12D) and 5.4 nM in the assay with SW480 (G12V).
As for “(1S,2S)-N-((6^3S,4S,Z)-1^1-ethyl-1^2-(2-((S)-1-methoxyethyl)-5-(((S)-4-methyl-1,1-dioxidothiomorpholin-2-yl)ethynyl)pyridin-3-yl)-10,10-dimethyl-5,7-dioxo-6^1,6^2,6^3,6^4,6^5,6^6-hexahydro-1^1H-8-oxa-2(4,2)-thiazola-1(5,3)-indola-6(1,3)-pyridazinacycloundecaphane-4-yl)-2-methylcyclopropane-1-carboxamide [Example 45]”, the values for the IC50 with AsPC-1 (G12D) and with SW480 (G12V) were 5.3 nM and 7.4 nM, respectively.
